≈ marks a conversion by molar mass, not a printed value. Read-outs that look alike come from different tables or passages of the source.

The conditions of series [1]: cited from earlier work.
Series [2] in a line: Solubility of literature quinones in aqueous electrolytes, reported or estimated from references.
Description: However, such value can be roughly estimated in the case of ref [4] by using equilibration tests reported in the figure 2e of this publication for PTO molecules.
In the table, (a) is for Estimated at mAM/Vel= 3/0.5 mg/ml and (b) vs. the maximum observed capacity (c) Estimated from Fig2e ref [4], that is 3.6% capacity loss upon 24h rest (OCV) in reduced state.
The conditions of series [3]: for saturation limit in comparison with compound 2 (2,5 DTBHQ) / saturation limit: 1 week at room temperature; for saturation limit: argon.
A short description of series [4]: physchem. The following applies: water.
Where [5] appears, read: 1.25 M Zn(CH3COO)2, pH 4-5, 10080 min.

Regarding `Oc1ccc(O)cc1` [1,4-benzohydroquinone], the “solubility in water compared with 1,4-benzoquinone” value in series [1] (water, background statement) is recorded as “six times more soluble”.
As for `O=C1C(O)=C(O)C(=O)C(O)=C1O` [THBQ], in series [1] (1M ZnSO4, pH 4-5, ref [1]), the Solubility oxidized state is reported as 3.4 mmol/L (≈ 585 µg/mL). For the same compound, the “Solubility factor vs. 2,5 DTBHQ” value in series [2] (1M ZnSO4, pH 4-5, ref [1]) is reported as approximately 100.
With `CC(C)(C)c1cc(O)ccc1O` [compound 8], in series [3] (setting [5]), the Solubility reduced state was 20400 µM (≈ 3390 µg/mL). In series [3] (acetate electrolytes), the “saturation limit in comparison with compound 2 (2,5 DTBHQ)” value is approximately 100 times and the saturation limit is on record as 20.4 mM/L.
Take `NC1=C(N)C(=O)C(N)=C(N)C1=O` [TABQ]: in series [1] (1M ZnSO4, pH 4-5, ref [1]), the Solubility oxidized state was 1.7 mmol/L (≈ 286 µg/mL). Besides, the “Solubility factor vs. 2,5 DTBHQ” value in series [2] (1M ZnSO4, pH 4-5, ref [1]) is recorded as approximately 100.
Take `O=C1C(=O)C(Cl)=C(Cl)C(Cl)=C1Cl` [o-TCBQ]: in series [1] (1M ZnSO4, pH 4-5, ref [1]), the Solubility oxidized state is 2.3 mmol/L (≈ 566 µg/mL). Besides, the “Solubility factor vs. 2,5 DTBHQ” value in series [2] (1M ZnSO4, pH 4-5, ref [1]) was approximately 100.
As to `O=C1C(Cl)=C(Cl)C(=O)C(Cl)=C1Cl` [p-TCBQ], in series [3] (pH 7), the Solubility oxidized state entry is reported as “Slightly soluble”.
In series [3] (setting [5]), `CC(C)(C)C1=CC(=O)C(C(C)(C)C)=CC1=O` [compound 1] gave a Solubility oxidized state of 26 µM (≈ 5.73 µg/mL) and a Solubility reduced state of 204 µM (≈ 44.9 µg/mL). In series [3] (acetate electrolytes), the “saturation limit in comparison with compound 2 (2,5 DTBHQ)” value is on record as “nearly ten times lower”. Also, the saturation limit in series [3] (acetic acid/potassium acetate pH 4.8, acetic acid/zinc acetate pH 4.5, zinc acetate 1.25 M pH 4.2) is recorded as 26.16 µmol/L. In series [4], this compound had a solubility (thermodynamic) at 1 week of 5.7 µg/mL (≈ 25.9 µM).
Consider `O=c1c(=O)c2cccc3c2-c2c1cccc2c(=O)c3=O` [PTO], for which the Solubility oxidized state entry in series [1] (2.5M Li2SO4, pH 7, ref [5]) is given as “Soluble (Fig. S21)”; in series [1] (4.4M H2SO4, pH 0, ref [5]), 0.0047 (Fig. S18) mmol/L. Further, the “Solubility factor vs. 2,5 DTBHQ” value in series [2] (2M ZnSO4, pH 4-5, ref [4]) was more than 11; in series [2] (2.5M Li2SO4, pH 7, ref [5]), more than 10000. In addition, the Solubility reduced state entry in series [2] (4.4M H2SO4, pH 0, ref [5], presumed) is “Presumed Not soluble”. Moreover, the “maximum solubility relative to compound 2 (2,5 DTBHQ)” value in series [2] (estimated from ref [4], reduced state) is “approx. 11 times”.

These data come from patent EP4475229A1, “QUINONE-TYPE MOLECULES FOR ZINC-ION AQUEOUS BATTERIES” (Centre National de la Recherche Scientifique, priority 2023, dated 2024).
